Experimental data published in US20080242660A1, “Therapeutic Agent for Vasospasm Accompanying Bypass Operation” (ASAHI KASEI PHARMA CORPORATION, priority 2004, published 2008).
Structures can show the parent of a compound that is named as a salt.

System: coronary vasospasm
Assay: Treatment of coronary vasospasm after off pump beating coronary artery bypass grafting (angiography, case reports)
Type: in vivo, patient
Experimental: To a patient who had been subjected to off pump beating coronary artery bypass grafting (in which a left internal thoracic artery was anastomosed to each of a left anterior descending coronary artery and a diagonal branch), during and after the operation, isosorbide dinitrate (2 to 5 mg/hour), diltiazem (1 to 2 mg/hour), nicorandil (4 to 6 mg/hour), and catecholamines (1 to 2 μg/kg per minute of dopamine and 1 to 2 μg/kg per minute of dobutamine) were continuously intravenously administered. However, after three hours of the operation, severe coronary vasospasm occurred. The coronary vasospasm occurred in a right coronary artery which was not related to the bypass operation. Isosorbide dinitrate (total of 10 mg) was administered into the coronary artery, but it had no effect on the vasospasm. Therefore, fasudil hydrochloride was dissolved in a physiological saline and then the mixture was administered into the right coronary artery for 15 minutes at a rate of 1.5 mg/minute. As a result, the coronary vasospasm was resolved (see FIG. 1). At the occurrence of the vasospasm and after the administration of isosorbide dinitrate, the right coronary artery became thin like a thread due to the vasospasm and peripheral part thereof was not illustrated. However, after the administration of fasudil hydrochloride, the peripheral part was illustrated. […] After that, fasudil hydrochloride was dissolved in the physiological saline and the mixture was continuously administered into the vein for 72 hours (tapered from 10 mg/hour).
To a patient who had been subjected to off pump beating coronary artery bypass grafting (in which a saphenous vein graft was anastomosed from an aorta to a left anterior descending coronary artery), during and after the operation, isosorbide dinitrate (1 to 5 mg/hour), diltiazem (1 to 2 mg/hour), and catecholamines (1 to 2 μg/kg per minute of dopamine, dobutamine, and norepinephrine, respectively) were continuously intravenously administered. However, after five hours of the operation, severe coronary vasospasm occurred. The coronary vasospasm occurred in a right coronary artery and a left circumflex coronary artery which were not related to the bypass operation. Isosorbide dinitrate (total of 10 mg) was administered into the right coronary artery, but it had no effect on the vasospasm. Therefore, fasudil hydrochloride was dissolved in a physiological saline and then the mixture was administered into the right coronary artery for 15 minutes at a rate of 1.5 mg/minute As a result, the coronary vasospasm was resolved (see FIG. 1). At the occurrence of the vasospasm and after the administration of isosorbide dinitrate, the distal part thereof from the portion where the vasospasm had occurred was not illustrated. However, after the administration of fasudil hydrochloride, the peripheral part was illustrated. […] After that, fasudil hydrochloride was dissolved in the physiological saline and the mixture was continuously administered into the vein for 72 hours (tapered from 10 mg/hour).
To a patient who had been subjected to off pump beating coronary artery bypass grafting (in which a right internal thoracic artery was anastomosed to a left anterior descending coronary artery and a left internal thoracic artery was anastomosed to a posterolateral branch of a left circumflex coronary artery), during the operation, isosorbide dinitrate (1 to 3 mg/hour), diltiazem (0.5 to 1 mg/hour), nicorandil (2 to 3 mg/hour), and catecholamines (1 to 5 μg/kg per minute of dopamine, 1 to 2 μg/kg per minute of dobutamine, and 1 to 2 μg/min of norepinephrine) were continuously intravenously administered. However, severe coronary vasospasm occurred immediately thereafter. The vasospasm occurred in the right coronary artery which was not related to the bypass operation and the bypass artery grafts (the right internal thoracic artery and the left internal thoracic artery) while the anastomosis region was left open. […]

For `O=S(=O)(c1cccc2cnccc12)N1CCCNCC1` [fasudil hydrochloride], the “recurrence of coronary vasospasm” value (Example 1 patient, continuous intravenous administration for 72 hours (tapered from 10 mg/hour)) was “did not occur again”, the “effect on the coronary vasospasm” value (Example 1 patient, fasudil hydrochloride in physiological saline into the right coronary artery for 15 minutes at 1.5 mg/minute) was “resolved” and the “recurrence of coronary vasospasm” value (Example 2 patient, continuous intravenous administration for 72 hours (tapered from 10 mg/hour)) was “did not occur again”. The “effect on the coronary vasospasm” value (Example 2 patient, fasudil hydrochloride in physiological saline into the right coronary artery for 15 minutes at 1.5 mg/minute) was “resolved”, the “recurrence of coronary vasospasm” value (Example 3 patient, continuous intravenous administration for 48 hours (tapered from 30 mg/hour)) was “did not occur again” and the “effect on the coronary vasospasm” value (Example 3 patient, fasudil hydrochloride in physiological saline into each of the blood vessels for 15 minutes at 1.5 mg/minute) was “resolved”.
